Target: T1, aldose reductase (Rattus norvegicus, UniProt P07943)
T1 construct: The crystalline lenses were homogenized in 135 mM sodium-potassium-phosphate buffer (pH 7.0) and centrifuged; from tissue; host or cells: lens of 6 week-old Wistar rats (30,000 rpm supernatant of homogenate)
Test: Determination of Aldose Reductase Activity (In Vitro)
Type: biochemical, rat (Wistar)
Details: Table 3; for inhibition at 10 µM: at the concentration of 10 μM, read-out: Inhibition rate %; for IC50: rat lens aldose reductase, 20 mM glucose, 30 min, 30° C, pH 7.0, read-out: 50% Inhibition Conc. [IC50 (M)]
Experimental: 6 week-old Wistar rats were sacrificed under ether anesthesia, and immediately lenses were removed and stored at -20° C. The crystalline lenses were homogenized in 135 mM sodium-potassium-phosphate buffer (pH 7.0) and centrifuged for 30 min. at 30,000 rpm. The supernatant was used as an aldose-reductase solution. The above procedure was carried out at 4° C. The enzyme solution was stored at -20° C.
The measurement of aldose reductase activity was conducted according to the method as described by Duffane et al. (Biochemical Medicine, 32:99-105 (1984)).
That is, 100 gl of the above enzyme solution and 100 gl of a solution prepared by dissolving a compound obtained in the following example to a final concentration of from 1.0×10^-5 to 4.0×10^-7 M in dimethylsulfoxide (DMSO) were added to 800 gl of 135 mM sodium-potassium-phosphate buffer (pH 7.0) containing 100 mM lithium sulfate, 0.03 mM NADPH (reduced form of nicotinamide adeninc dinucleotide phosphate) and 20 mM glucose as a substrate. The sample was allowed to react for 30 min. at 30° C. The reaction was stopped by addition of 0.3 ml of 0.5N hydrochloric acid. The NADP (oxided form of nicotinamide adenine dinucleotide) formed during the above reaction was converted into a fluorescent substance by addition of 1 ml of 6N sodium hydroxide containing 10 mM imidazole. 30 min. thereafter, the sample was measured for fluorescence intensity at the fluorescence wavelength of 460 nm (excitation wavelength: 360 nm) using a fluorescence photometer F-4000 (manufactured by Hitachi, Ltd.) at room temperature. A sample containing DMSO in place of the present compound was used as a control, and its fluorescence intensity was determined in the same manner as above.
Aldose reductase is an enzyme to convert DL-glyceraldehyde or glucose into polyol in the presence of NADPH as a coenzyme. As this reaction proceeds, NADPH is converted into NADP, so that the smaller amount of NADP formed indicates higher inhibition of aldose reductase. […]

SMILES	inhibition at 10 µM [%]	IC50 [M]
CC(C)Oc1cc(OC(C)C)c2c(=O)cc(Sc3ccc(O)cc3)oc2c1 [Example 69, 5,7-diisopropoxy-2-(4-hydroxyphenylthio)chromone]	97.7	–
COc1cc(OC)c2c(=O)cc(Sc3nnc(N)s3)oc2c1 [Example 63, 2-(2-amino-5-thiadiazolylthio)-5,7-dimethoxychromone]	31.1	–
CCCCOc1cc2oc(Sc3ccc(O)cc3)cc(=O)c2c(OCCCC)c1OC [Example 14, 5,7-dibutoxy-2-(4-hydroxyphenylthio)-6-methoxychromone]	86.8	1.9e-07
COc1cc2oc(Sc3ccc(O)cc3)cc(=O)c2c(O)c1OC [Example 2, 5-hydroxy-2-(4-hydroxyphenylthio)-6,7-dimethoxychromone]	87.1	1.1e-07
COc1cc(OC)c2c(=O)cc(Sc3ccccn3)oc2c1 [Example 58, 5,7-dimethoxy-2-(2-pyridylthio)chromone]	37.4	–
CCOc1cc2oc(Sc3ccc(O)cc3)cc(=O)c2c(OCC)c1OC [Example 11, 5,7-diethoxy-2-(4-hydroxyphenylthio)-6-methoxychromone]	98.5	4e-08
COc1c(OC(C)C)cc2oc(Sc3ccc(O)c(Cl)c3)cc(=O)c2c1OC(C)C [Example 19, 2-(3-chloro-4-hydroxyphenylthio)-5,7-diisopropoxy-6-methoxychromone]	69.8	4e-06
COc1ccc(CSc2cc(=O)c3c(OC)cc(OC)cc3o2)cc1 [Example 73, 5,7-dimethoxy-2-(4-methoxybenzylthio)chromone]	16.4	–
COc1cc(OC)c2c(=O)cc(Oc3ccc(O)cc3)oc2c1 [Example 70, 2-(4-hydroxyphenoxy)-5,7-dimethoxychromone]	85.5	1e-06
COc1cc(OC)c2c(=O)cc(Sc3cccc(Cl)c3)oc2c1 [Example 43, 5,7-dimethoxy-2-(3-chlorophenylthio)chromone]	44	–
COc1cc(OC)c2c(=O)cc(Sc3ccccc3)oc2c1 [Example 41, 5,7-dimethoxy-2-phenylthiochromone]	52.4	–
COc1cc(OC)c2c(=O)cc(Sc3ccccc3C)oc2c1 [Example 52, 5,7-dimethoxy-2-(2-methylphenylthio)chromone]	31.7	–
COc1c(OC(C)C)cc2oc(S(=O)(=O)c3ccc(O)cc3)cc(=O)c2c1OC [Compound 2 obtained in Example 34, 5,6-dimethoxy-2-(4-hydroxyphenylsulfonyl)-7-isopropoxychromone]	96.6	1e-06
COc1c(OC(C)C)cc2oc(Sc3ccc(O)cc3)cc(=O)c2c1OC(C)C [Example 13, 5,7-diisopropoxy-2-(4-hydroxyphenylthio)-6-methoxychromone]	93.7	1.8e-08
COc1cc(OC)c2c(=O)cc(Sc3ccccc3N)oc2c1 [Example 49, 5,7-dimethoxy-2-(2-aminophenylthio)chromone]	48.2	–
COc1cc(OC)c2c(=O)cc(Sc3cccc(C)c3)oc2c1 [Example 53, 5,7-dimethoxy-2-(3-methylphenylthio)chromone]	22.8	–
COc1c(OC(C)C)cc2oc([S+]([O-])c3ccc(O)cc3)cc(=O)c2c1OC (centres unmarked) [Compound 1 obtained in Example 34, 5,6-dimethoxy-2-(4-hydroxyphenylsulfinyl)-7-isopropoxychromone]	98	4.6e-07
COc1c(OC(C)C)cc2oc(Sc3ccc(O)cc3)cc(=O)c2c1O [Example 26, 5-hydroxy-2-(4-hydroxyphenylthio)-7-isopropoxy-6-methoxychromone]	98.1	6.5e-08
COc1cc(OC)c2c(=O)cc(Sc3ccc(C(=O)O)cc3)oc2c1 [Example 64, 4-(5,7-dimethoxychromonyl-2-thio)benzoic acid]	52.9	–
COc1cc(OC)c2c(=O)cc(Sc3cccc(O)c3)oc2c1 [Example 57, 2-(3-hydroxyphenylthio)-5,7-dimethoxychromone]	50.5	–

Reference: patent US5455267A, “Chromone derivative, and aldose reductase inhibitor comprising said compound as active component” (Tsumura & Co., priority 1990, dated 1995)
